Test results reported in patent US20260109694A1, “HETEROCYCLIC COMPOUNDS AND USES THEREOF” (Kumquat Biosciences Inc., priority 2023, published 2026).

Tests used:
[1] = biological target: T1, PTP1B (Homo sapiens, UniProt P18031); test: Phosphatase activity assay (DiFMUP substrate); type: biochemical; conditions: value bin printed in column head
T1 sequence (P18031 1-435): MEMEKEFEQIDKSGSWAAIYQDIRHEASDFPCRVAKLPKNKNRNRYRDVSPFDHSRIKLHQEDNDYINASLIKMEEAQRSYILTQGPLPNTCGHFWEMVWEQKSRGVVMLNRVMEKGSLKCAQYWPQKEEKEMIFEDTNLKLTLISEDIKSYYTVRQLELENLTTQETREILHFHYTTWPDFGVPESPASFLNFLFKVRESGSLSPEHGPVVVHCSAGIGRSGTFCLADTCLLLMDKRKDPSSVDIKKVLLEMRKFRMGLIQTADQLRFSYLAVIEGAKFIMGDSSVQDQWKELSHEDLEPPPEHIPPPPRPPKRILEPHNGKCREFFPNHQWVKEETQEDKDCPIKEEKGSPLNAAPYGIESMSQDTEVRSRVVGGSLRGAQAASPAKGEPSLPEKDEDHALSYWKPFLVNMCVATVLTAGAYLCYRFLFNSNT
Procedure: (§1) The selectivity and potency of a small molecule PTPN2 inhibitor as provided herein against one or more protein tyrosine phosphatase (PTP) enzymes, and specifically against PTPN2, is assessed in various ways. The one or more PTP enzymes comprise Mycobacterium protein tyrosine phosphatase A (mPTPA), Mycobacterium protein tyrosine phosphatase B (mPTPB), PTPN1 (i.e., PTP1B), PTPN2 (i.e., TC-PTP), PTPN22 (i.e., LYP), SHP-1, SHP-2, FAP-1, Meg2, HePTP, Laforin, VHX, VHR, LMWPTP, Cdc14A, LAR, CD45, PTPRG, a fragment thereof, a variant thereof, and a combination thereof. Selectivity and potency of a small molecule PTPN2 inhibitor is evaluated using a PTP activity inhibition assay. The assay is performed using a buffer comprising 50 mM HEPES buffer pH 7.5, 150 mM NaCl, 0.5 mM EDTA, 1 mM DTT, 0.001% Tween-20.
(§2) The assay is performed using a phosphated substrate, e.g., 10 mM 6,8-Difluoro-4-Methylumbelliferyl Phosphate (DIFMUP) that is stored at −20° C. Alternatively or in addition to, the assay is performed using other phosphated substrate (e.g., fluorescein diphosphate). Each PTP enzyme is diluted in the assay buffer
(§3) The assay can be carried out at room temperature in multiplate format, e.g., using 384 well plates. A small molecule PTPN2 inhibitor dissolved in DMSO at one of 10 concentrations from a serial dilution or DMSO alone for control is added to each well. A mixture of the assay buffer comprising PTP enzyme (e.g., 0.025 ng/ul PTPN2) is added to each well and mixed for approximately 2 minutes. The reaction is initiated by adding DiFMUP diluted in the assay buffer to a final concentration of approximately 45 µM DiFMUP in PTPN2 assay. For each PTP enzyme, DiFMUP is added at the Km (Michaelis constant) of the enzyme that had been independently determined. The phosphatase activity of the PTP enzyme is assessed by monitoring appearance of a fluorescent product (6,8-difluoro-7-hydroxyl-4-coumarin (DiFMU) from DiFMUP) continuously for about 15 to 30 minutes, using the INFINITE M1000Pro plate reader (Tecan) with excitation at 360 nm and emission at 450 nm (cutoff filter at 435 nm) for DiFMU. Each assay is performed at least in duplicate. The rate (e.g., the initial rate) of DiFMU formation is plotted against the concentration of the small molecule PTPN2 inhibitor, and the data is fitted (e.g., using a 4-parameter equation) to determine the inflection point of the fit as the IC50 of the small molecule PTPN2 inhibitor for a specific enzyme. Utilizing this assay, the ability of the compounds in Table 1 to inhibit PTPN2 and PTP1B has been assessed. Table 3 summarizes the IC50 values.

[2] = biological target: T2, PTPN2 (Homo sapiens, UniProt P17706); test: Phosphatase activity assay (DiFMUP substrate); type: biochemical; conditions: value bin printed in column head
T2 sequence (P17706 1-415): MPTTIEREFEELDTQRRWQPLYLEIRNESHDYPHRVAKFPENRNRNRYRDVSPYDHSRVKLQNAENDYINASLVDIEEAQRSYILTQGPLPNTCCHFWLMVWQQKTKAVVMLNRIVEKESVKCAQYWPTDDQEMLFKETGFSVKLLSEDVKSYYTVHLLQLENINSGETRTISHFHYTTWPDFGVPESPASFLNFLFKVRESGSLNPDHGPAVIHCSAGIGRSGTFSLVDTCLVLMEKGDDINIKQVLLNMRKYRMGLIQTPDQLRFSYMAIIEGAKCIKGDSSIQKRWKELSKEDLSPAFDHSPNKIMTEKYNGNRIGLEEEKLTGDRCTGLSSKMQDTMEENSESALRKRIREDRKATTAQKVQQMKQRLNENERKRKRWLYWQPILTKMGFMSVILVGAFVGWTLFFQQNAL
Procedure: as §1, §2, §3

| Compound | IC50 [1] | IC50 [2] |
| --- | --- | --- |
| CC(OC(=O)C(C)C)OC(=O)N1CC(c2ccc(O)c(N3CC(=O)NS3(=O)=O)c2F)=C[C@H]1CCC1CCC1 (stereo partly drawn) [Compound 156, 1-(isobutyryloxy)ethyl (2R)-2-(2-cyclobutylethyl)-4-(3-(1,1-dioxido-4-oxo-1,2,5-thiadiazolidin-2-yl)-2-fluoro-4-hydroxyphenyl)-2,5-dihydro-1H-pyrrole-1-carboxylate] | ≤ 1000 nM | ≤ 1000 nM |
| CC(OC(=O)[C@H](N)C(C)C)OC(=O)N1CC(c2ccc(O)c(N3CC(=O)NS3(=O)=O)c2F)=C[C@H]1CCC1CCC1 (stereo partly drawn) [Compound 147, 1-((D-valyl)oxy)ethyl (2R)-2-(2-cyclobutylethyl)-4-(3-(1,1-dioxido-4-oxo-1,2,5-thiadiazolidin-2-yl)-2-fluoro-4-hydroxyphenyl)-2,5-dihydro-1H-pyrrole-1-carboxylate] | ≤ 1000 nM | ≤ 1000 nM |
| CC(C)CC[C@H]1C=C(c2ccc(O)c(N3CC(=O)NS3(=O)=O)c2F)CN1C(=O)OC(C)OC(=O)C1CCCC1 (stereo partly drawn) [Compound 153, 1-((cyclopentanecarbonyl)oxy)ethyl (2S)-4-(3-(1,1-dioxido-4-oxo-1,2,5-thiadiazolidin-2-yl)-2-fluoro-4-hydroxyphenyl)-2-isopentyl-2,5-dihydro-1H-pyrrole-1-carboxylate] | > 1000 nM | > 1000 nM |
| CC1=C(c2ccc(O)c(N3CC(=O)NS3(=O)=O)c2F)CNC1C (stereo not drawn) [Compound 118, 5-(3-(4,5-dimethyl-2,5-dihydro-1H-pyrrol-3-yl)-2-fluoro-6-hydroxyphenyl)-1,2,5-thiadiazolidin-3-one 1,1-dioxide] | > 1000 nM | > 1000 nM |
| CC(C)[C@@H](N)C(=O)NCC(=O)N1CC(c2ccc(O)c(N3CC(=O)NS3(=O)=O)c2F)=C[C@H]1CCC1CCC1 [Compound 149, (R)-2-amino-N-(2-((R)-2-(2-cyclobutylethyl)-4-(3-(1,1-dioxido-4-oxo-1,2,5-thiadiazolidin-2-yl)-2-fluoro-4-hydroxyphenyl)-2,5-dihydro-1H-pyrrol-1-yl)-2-oxoethyl)-3-methylbutanamide] | ≤ 1000 nM | ≤ 1000 nM |
| CC(C)C(=O)O[C@@H](C)OC(=O)N1CC(c2ccc(O)c(N3CC(=O)NS3(=O)=O)c2F)=C[C@H]1CCC1CC1 [Compound 143, (R)-1-(isobutyryloxy)ethyl (R)-2-(2-cyclopropylethyl)-4-(3-(1,1-dioxido-4-oxo-1,2,5-thiadiazolidin-2-yl)-2-fluoro-4-hydroxyphenyl)-2,5-dihydro-1H-pyrrole-1-carboxylate] | ≤ 1000 nM | ≤ 1000 nM |
| O=C1CN(c2c(O)ccc(C3=C[C@@H](CCC4CCC4)NC3)c2F)S(=O)(=O)N1 [Compound 116, (R)-5-(3-(5-(2-cyclobutylethyl)-2,5-dihydro-1H-pyrrol-3-yl)-2-fluoro-6-hydroxyphenyl)-1,2,5-thiadiazolidin-3-one 1,1-dioxide] | ≤ 1000 nM | ≤ 1000 nM |
| O=C1CN(c2c(O)ccc(C3=CC(CCC4CCCC4)NC3)c2F)S(=O)(=O)N1 (stereo not drawn) [Compound 101, 5-(3-(5-(2-cyclopentylethyl)-2,5-dihydro-1H-pyrrol-3-yl)-2-fluoro-6-hydroxyphenyl)-1,2,5-thiadiazolidin-3-one 1,1-dioxide] | ≤ 1000 nM | ≤ 1000 nM |
| CC(C)CC[C@H]1C=C(c2ccc(O)c(N3CC(=O)NS3(=O)=O)c2F)CN1C(=O)O[C@@H](C)OC(=O)C(C)C [Compound 154, (S)-1-(isobutyryloxy)ethyl (S)-4-(3-(1,1-dioxido-4-oxo-1,2,5-thiadiazolidin-2-yl)-2-fluoro-4-hydroxyphenyl)-2-isopentyl-2,5-dihydro-1H-pyrrole-1-carboxylate] | ≤ 1000 nM | ≤ 1000 nM |
| CC(C)C(=O)O[C@H](C)OC(=O)N1CC(c2ccc(O)c(N3CC(=O)NS3(=O)=O)c2F)=C[C@H]1CCC1CC1 [Compound 161, (S)-1-(isobutyryloxy)ethyl (R)-2-(2-cyclopropylethyl)-4-(3-(1,1-dioxido-4-oxo-1,2,5-thiadiazolidin-2-yl)-2-fluoro-4-hydroxyphenyl)-2,5-dihydro-1H-pyrrole-1-carboxylate] | ≤ 1000 nM | ≤ 1000 nM |
| O=C1CN(c2c(O)ccc(C3=CC(CCC4CCC4)NC3)c2F)S(=O)(=O)N1 (racemic) [Compound 106, 5-(3-(5-(2-cyclobutylethyl)-2,5-dihydro-1H-pyrrol-3-yl)-2-fluoro-6-hydroxyphenyl)-1,2,5-thiadiazolidin-3-one 1,1-dioxide] | ≤ 1000 nM | ≤ 1000 nM |
| CC1(C2C=C(c3ccc(O)c(N4CC(=O)NS4(=O)=O)c3F)CN2)CC1 (stereo not drawn) [Compound 108, 5-(2-fluoro-6-hydroxy-3-(5-(1-methylcyclopropyl)-2,5-dihydro-1H-pyrrol-3-yl)phenyl)-1,2,5-thiadiazolidin-3-one 1,1-dioxide] | > 1000 nM | ≤ 1000 nM |
| CC(C)(C)CC[C@@H]1C=C(c2ccc(O)c(N3CC(=O)NS3(=O)=O)c2F)CN1 [Compound 110, (R)-5-(3-(5-(3,3-dimethylbutyl)-2,5-dihydro-1H-pyrrol-3-yl)-2-fluoro-6-hydroxyphenyl)-1,2,5-thiadiazolidin-3-one 1,1-dioxide] | ≤ 1000 nM | ≤ 1000 nM |
| O=C1CN(c2c(O)cc(C3CCCNC3)cc2F)S(=O)(=O)N1 (stereo not drawn) [Compound 138, 5-(2-fluoro-6-hydroxy-4-(piperidin-3-yl)phenyl)-1,2,5-thiadiazolidin-3-one 1,1-dioxide] | ≤ 1000 nM | ≤ 1000 nM |
| O=C1CN(c2c(O)cc(C3=CC(CCC4CC4)NC3)cc2F)S(=O)(=O)N1 (stereo not drawn) [Compound 105, 5-(4-(5-(2-cyclopropylethyl)-2,5-dihydro-1H-pyrrol-3-yl)-2-fluoro-6-hydroxyphenyl)-1,2,5-thiadiazolidin-3-one 1,1-dioxide] | ≤ 1000 nM | ≤ 1000 nM |
| CC(OC(=O)[C@@H](N)C(C)C)OC(=O)N1CC(c2ccc(O)c(N3CC(=O)NS3(=O)=O)c2F)=C[C@H]1CCC1CCC1 (stereo partly drawn) [Compound 158, 1-((L-valyl)oxy)ethyl (2R)-2-(2-cyclobutylethyl)-4-(3-(1,1-dioxido-4-oxo-1,2,5-thiadiazolidin-2-yl)-2-fluoro-4-hydroxyphenyl)-2,5-dihydro-1H-pyrrole-1-carboxylate] | ≤ 1000 nM | ≤ 1000 nM |
| O=C1CN(c2c(O)ccc(CC3CNC3)c2F)S(=O)(=O)N1 [Compound 103, 5-(3-(azetidin-3-ylmethyl)-2-fluoro-6-hydroxyphenyl)-1,2,5-thiadiazolidin-3-one 1,1-dioxide] | ≤ 1000 nM | ≤ 1000 nM |
| O=C1CN(c2c(O)cc(CC3CCNC3)cc2F)S(=O)(=O)N1 (stereo not drawn) [Compound 140, 5-(2-fluoro-6-hydroxy-4-(pyrrolidin-3-ylmethyl)phenyl)-1,2,5-thiadiazolidin-3-one 1,1-dioxide] | ≤ 1000 nM | ≤ 1000 nM |
